The values that follow come from paper PMC7269503 (Antimicrobial Agents and Chemotherapy, 2020).

The Tmax is the time from dosing to the highest level. As usually defined, the AUC(0-t) is the area under the concentration-time curve up to a stated or last time point. One may read the Cmax as the maximum level reached in the sampled fluid or tissue. The half-life is the time needed for the level to fall by half in the phase considered.

In brackets after ≈: the same amount, converted by molar mass. Several values for one entry are separate records, joined by “and”; a condition that tells them apart may be missing. Equal values may be shown once. Read-outs that look alike come from different tables or passages of the source. Where only a bound is given, the exact number is not on record here.

Series [1] concerns M. tuberculosis ATCC 27294 (H37Rv). Briefly: MIC by agar proportion method, standard strain. Particulars: Mycobacterium tuberculosis; ATCC 27294 (H37Rv); agar proportion method; […]; read-out: MIC. In kind it is cell-based.
The subject of series [2] is M. tuberculosis ATCC 35812 (Kurono). The series can be described thus: MIC by agar proportion method, standard strain. Particulars: Mycobacterium tuberculosis, ATCC35812; ATCC 35812 (Kurono); agar proportion method; read-out: MIC. In kind it is cell-based.
For series [3], the system named is M. tuberculosis ATCC 35838 (H37Rv RIF-R). Briefly: MIC by agar proportion method, standard strain. The conditions noted are these: Mycobacterium tuberculosis; […]; agar proportion method; read-out: MIC. It is filed as cell-based.
Series [4] deals with M. tuberculosis ATCC 35822 (H37Rv INH-R). Briefly: MIC by agar proportion method, standard strain. The conditions noted are these: Mycobacterium tuberculosis; […]; agar proportion method; read-out: MIC. It is filed as cell-based.
Series [5] concerns M. tuberculosis ATCC 35837 (H37Rv EMB-R). Briefly: MIC by agar proportion method, standard strain. It is filed as cell-based. Particulars: Mycobacterium tuberculosis; […]; agar proportion method; read-out: MIC.
The test system of series [6] is M. tuberculosis ATCC 35820 (H37Rv SM-R). Briefly: MIC by agar proportion method, standard strain. In kind it is cell-based. The conditions noted are these: Mycobacterium tuberculosis; […]; agar proportion method; read-out: MIC.
Series [7] has as its system M. tuberculosis ATCC 35828 (H37Rv PZA-R). The series can be described thus: MIC by agar proportion method, standard strain. It is filed as cell-based. The conditions noted are these: Mycobacterium tuberculosis; […]; agar proportion method; read-out: MIC.
A further series has as its system M. africanum ATCC 25420. Briefly: MIC by agar proportion method, standard strain. It is filed as cell-based. The conditions noted are these: ATCC25420; M. africanum ATCC 25420; agar proportion method; read-out: MIC.
In a further series the test system is M. bovis ATCC BAA-935. Briefly: microbe, parasite or virus in culture. It is filed as cell-based. The conditions noted are these: Mycobacterium tuberculosis variant bovis, ATCCBAA935.
For another series, the system named is M. caprae ATCC BAA-824. The series can be described thus: MIC by agar proportion method, standard strain. In kind it is cell-based. The conditions noted are these: ATCCBAA824; M. caprae ATCC BAA-824; agar proportion method; read-out: MIC.
For the next series, the system named is M. microti ATCC 11152. Briefly: MIC by agar proportion method, standard strain. It is filed as cell-based. The conditions noted are these: ATCC11152; M. microti ATCC 11152; agar proportion method; read-out: MIC.
For series [8], the system named is M. pinnipedii ATCC BAA-688. Briefly: MIC by agar proportion method, standard strain. It is filed as cell-based. The conditions noted are these: ATCCBAA688; M. pinnipedii ATCC BAA-688; agar proportion method; read-out: MIC.
The test system of series [9] is clinically isolated M. tuberculosis strains. In kind it is cell-based. The conditions noted are these: summary in abstract.
Series [10] relates to standard strains of nonmycobacterial aerobic and anaerobic bacteria. Briefly: Activity against nonmycobacterial bacteria. In kind it is cell-based. Particulars: data not shown.
Series [11] relates to growing M. tuberculosis H37Rv. It is filed as cell-based.
Series [12] has as its system intracellular M. tuberculosis H37Rv. The series can be described thus: microbe, parasite or virus in culture. It is filed as cell-based.
For series [13], the system named is intracellular M. tuberculosis Kurono. Briefly: microbe, parasite or virus in culture. In kind it is cell-based.
Series [14] concerns 27 strains of M. tuberculosis. Briefly: Checkerboard agar dilution assay. It is filed as cell-based. Particulars: combined with DMD, MXF, LVX, BDQ, or LZD. As to the method:
FIG 4 In vitro combination effects of OPC-167832 and other anti-TB agents (checkerboard assay). The in vitro combination effects of OPC-167832 and existing anti-TB agents against 27 strains of M. tuberculosis were examined by the checkerboard agar dilution method. CI, confidence interval.
The checkerboard procedure was performed using the MICs of tested agents against the bacterial strains established by an agar dilution method reported previously ([36]). The level of synergy was determined by calculating the FIC index based on the following formulas: ΣFIC = FIC of compound A + FIC of compound B; FIC of compound A = MIC of compound A in combination ÷ MIC of compound A alone; FIC of compound B = MIC of compound B in combination ÷ MIC of compound B alone. The average ΣFIC value was interpreted using the European Committee on Antimicrobial Susceptibility Testing criteria ([37]) with the following values: ≤0.5, synergy; >0.5 to 1, additive effect; >1 to 2, indifference; >2, antagonism). The averages of the ΣFIC values and the 95% confidence intervals for the tested bacterial strains were calculated.

Series [15] concerns M. tuberculosis Kurono. The series can be described thus: Monotherapy in a mouse model of chronic TB. It is filed as in vivo.
The subject of series [16] is M. tuberculosis Kurono. In kind it is in vivo. Particulars: oral 5 days per week, 4 weeks; OPC-167832 0.625, DMD 0.625, BDQ 5, LVX 300, LZD 100 mg/kg.
For series [17] the following is noted: lung.
A further series in a line: in vivo. Particulars: ICR, mouse.
The conditions of series [18]: lungs of mice; cited from earlier work.
The next series concerns M. tuberculosis. Particulars: cited from earlier work.

Take `O=C1CCc2c(OC[C@]3(O)CCN(c4c(F)cc(Cl)cc4F)C[C@H]3O)ccc(F)c2N1` [OPC-167832]: the MIC was determined as 0.5 ng/mL (≈ 1.09 nM) in [1]; 0.5 ng/mL (≈ 1.09 nM) in [2]; 0.5 ng/mL (≈ 1.09 nM) in [3]; 0.24 ng/mL (≈ 0.525 nM) in [4]; 2 ng/mL (≈ 4.38 nM) in series [5]; 1 ng/mL (≈ 2.19 nM) in series [6]. Further, the MIC in series [7] is 1 ng/mL (≈ 2.19 nM); in the series with M. africanum ATCC 25420, 2 ng/mL (≈ 4.38 nM); with M. bovis ATCC BAA-935, 2 ng/mL (≈ 4.38 nM); in the series on M. caprae ATCC BAA-824, 1 ng/mL (≈ 2.19 nM); in the series on M. microti ATCC 11152 it was 1 ng/mL (≈ 2.19 nM); in [8], 0.5 ng/mL (≈ 1.09 nM). The “MICs for Mycobacterium tuberculosis (overall range)” value in series [9] was in the range of 0.00024 to 0.002 µg/mL. The “activity against nonmycobacterial aerobic and anaerobic bacteria” value in series [10] is recorded as “minimal or no activity”. Also, the “concentration at which killing activity was achieved” value in series [11] stood at 0.0005 µg/mL. The “concentration at which intracellular bactericidal activity was saturated” value in series [12] was ≥ 0.004 µg/mL. The “bactericidal activity against intracellular bacilli” value in series [12] (H37Rv in THP-1-derived macrophage-like cells, 3 days) is reported as “killed the intracellular bacilli”; in series [13] (Kurono in THP-1-derived macrophage-like cells, 3 days), “killed the intracellular bacilli”. Further, the IC90 in series [12] (Mycobacterium tuberculosis, H37RV, THP-1, read-out: 90% inhibitory concentration (IC90)) was determined as 4.8 ng/mL (≈ 10.5 nM); in series [13] (Mycobacterium tuberculosis, THP-1, read-out: 90% inhibitory concentration (IC90)) it was 2.7 ng/mL (≈ 5.91 nM). Moreover, the “interactive effect (mean FIC index)” value in [14] is “indifferent effect”. Further, in the series with M. tuberculosis Kurono [15] (0.625, 1.25, 2.5, 5 and 10 mg/kg oral daily, 4 weeks, ICR female mice), the “lung CFU compared to the vehicle group” value is recorded as “significantly reduced lung CFU”. In the series on M. tuberculosis Kurono [15] (mouse model of chronic TB, oral), this molecule gave a minimum effective dose of 0.625 mg/kg. Besides, in the series with M. tuberculosis Kurono [16], the “lung CFU compared to the vehicle group, single agent” value is reported as “significant decrease of lung CFU”. Also, the AUCt in [17] (0.625 mg/kg oral, t: 8h) is 505 ng·h/g; in [17] (1.25 mg/kg oral, t: 8h), 909 ng·h/g; in [17] (2.5 mg/kg oral, t: 8h), 2133 ng·h/g; in series [17] (5 mg/kg oral, t: 12h), 4742 ng·h/g; in series [17] (10 mg/kg oral, t: 12h), 7410 ng·h/g. Further, the Kp is 1.67 to 1.96 in the series “in vivo” and ~2 in “in vivo” (female, po). Also, the Tmax in the series “in vivo” (female, po) was 0.5 to 1 h; in “in vivo” (female, po, 0.625 mg/kg), 1 h; in the series “in vivo” (female, po, 1.25 mg/kg), 1 h; in “in vivo” (female, po, 2.5 mg/kg), 0.5 h; in the series “in vivo” (female, po, 5 mg/kg) it was 1 h; in the series “in vivo” (female, po, 10 mg/kg), 1 h. Moreover, the area under the curve AUC(0-t) in the series “in vivo” (female, po, 0.625 mg/kg) came out at 283 ng·h/mL; in “in vivo” (female, po, 1.25 mg/kg) it was 543 ng·h/mL; in “in vivo” (female, po, 2.5 mg/kg), 1140 ng·h/mL; in “in vivo” (female, po, 5 mg/kg) it was 2650 ng·h/mL; in the series “in vivo” (female, po, 10 mg/kg) it was 3780 ng·h/mL. Further, the Cmax in the series “in vivo” (female, po, 0.625 mg/kg) was 162 ng/g; in the series “in vivo” (female, po, 1.25 mg/kg), 303 ng/g and 200 ng/mL; in the series “in vivo” (female, po, 2.5 mg/kg) it was 314 ng/mL and 651 ng/g; in the series “in vivo” (female, po, 5 mg/kg) it was 758 ng/mL and 1360 ng/g; in “in vivo” (female, po, 10 mg/kg) it was 1090 ng/mL and 2220 ng/g. Moreover, the half-life in the series “in vivo” (female, po, 0.625 mg/kg, t1/2, lung, 0.625 mg/kg oral, calculated 2 - 8h) is 1.4 h; in the series “in vivo” (female, po, 0.625 mg/kg, t1/2, plasma, 0.625 mg/kg oral, calculated 2 - 8h), 1.6 h; in the series “in vivo” (female, po, 1.25 mg/kg, t1/2, lung, 1.25 mg/kg oral, calculated 4 - 8h), 2 h; in the series “in vivo” (female, po, 1.25 mg/kg, t1/2, plasma, 1.25 mg/kg oral, calculated 2 - 12h), 1.5 h; in the series “in vivo” (female, po, 2.5 mg/kg, t1/2, lung, 2.5 mg/kg oral, calculated 2 - 8h), 1.3 h; in the series “in vivo” (female, po, 2.5 mg/kg, t1/2, plasma, 2.5 mg/kg oral, calculated 6 - 12h), 1.3 h. For the same molecule, the half-life was 2.1 h in the series “in vivo” (female, po, 5 mg/kg, t1/2, lung, 5 mg/kg oral, calculated 2 - 12h); 2.1 h in the series “in vivo” (female, po, 5 mg/kg, t1/2, plasma, 5 mg/kg oral, calculated 2 - 12h); 2.1 h in “in vivo” (female, po, 10 mg/kg, t1/2, lung, 10 mg/kg oral, calculated 6 - 12h); 1.6 h in the series “in vivo” (female, po, 10 mg/kg, t1/2, plasma, 10 mg/kg oral, calculated 2 - 12h); 1.3 to 2.1 h in “in vivo” (female, po, half-life (t1/2), plasma, oral doses 0.625 to 10 mg/kg).

As to `O=c1nc(N2CCN(CC3CCCCC3)CC2)sc2c([N+](=O)[O-])cc(C(F)(F)F)cc12` [PBTZ169], the “Kp (tissue to plasma partition coefficient), lungs” value in [18] is listed as 0.415.

For `CCOC(=O)NC(=O)c1ccsc1NC(=O)c1nc2ccccc2s1` [TCA1], in the series on M. tuberculosis, the MIC is 190 ng/mL (≈ 506 nM).
